Experimental data: publication PMC8793334, “Validation of a System xc^– Functional Assay in Cultured Astrocytes and Nervous Tissue Samples” (Frontiers in Cellular Neuroscience, 2022)

Experiments:
Type in all cases: cell-based
[1] = molecular target: T1, xCT (system xc–, cystine-glutamate exchanger) (Rattus norvegicus, UniProt A0A8I6AB70); assay: inhibition of [3H]-L-glutamate uptake in Na+-free buffer, CHO-xCT cells, concentration-response
T1 construct: gene Slc7a11; with 4F2hc (Slc3a2)

[2] = molecular target: T1, xCT (system xc–, cystine-glutamate exchanger); assay: radiolabeled substrate uptake in Na+-free buffer, transfected versus non-transfected CHO cells
[3] = molecular target: T2, xCT (system xc–, cystine-glutamate exchanger) (Mus musculus, UniProt Q9WTR6); assay: radiolabeled substrate uptake in Na+-free buffer, knockout control
T2 construct: gene Slc7a11; native exchanger in cultured astrocytes and spinal cord crude synaptosomes, wild-type versus xCT–/–; with 4F2hc (Slc3a2)
T2 sequence (Q9WTR6 1-502): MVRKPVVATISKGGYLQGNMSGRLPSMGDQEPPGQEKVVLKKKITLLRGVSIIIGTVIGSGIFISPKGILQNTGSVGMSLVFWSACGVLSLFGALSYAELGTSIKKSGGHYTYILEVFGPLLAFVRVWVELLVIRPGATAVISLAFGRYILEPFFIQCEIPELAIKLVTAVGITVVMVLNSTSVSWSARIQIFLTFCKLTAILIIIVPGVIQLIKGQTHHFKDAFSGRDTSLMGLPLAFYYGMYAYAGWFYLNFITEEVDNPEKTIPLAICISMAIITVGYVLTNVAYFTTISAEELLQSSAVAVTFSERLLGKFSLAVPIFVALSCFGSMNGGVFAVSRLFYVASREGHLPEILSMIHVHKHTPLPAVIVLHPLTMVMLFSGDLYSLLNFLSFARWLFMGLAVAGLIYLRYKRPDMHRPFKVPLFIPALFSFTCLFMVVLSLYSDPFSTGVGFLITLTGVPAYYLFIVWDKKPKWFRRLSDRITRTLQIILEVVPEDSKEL
T2 sequence (P10852 1-526 partner): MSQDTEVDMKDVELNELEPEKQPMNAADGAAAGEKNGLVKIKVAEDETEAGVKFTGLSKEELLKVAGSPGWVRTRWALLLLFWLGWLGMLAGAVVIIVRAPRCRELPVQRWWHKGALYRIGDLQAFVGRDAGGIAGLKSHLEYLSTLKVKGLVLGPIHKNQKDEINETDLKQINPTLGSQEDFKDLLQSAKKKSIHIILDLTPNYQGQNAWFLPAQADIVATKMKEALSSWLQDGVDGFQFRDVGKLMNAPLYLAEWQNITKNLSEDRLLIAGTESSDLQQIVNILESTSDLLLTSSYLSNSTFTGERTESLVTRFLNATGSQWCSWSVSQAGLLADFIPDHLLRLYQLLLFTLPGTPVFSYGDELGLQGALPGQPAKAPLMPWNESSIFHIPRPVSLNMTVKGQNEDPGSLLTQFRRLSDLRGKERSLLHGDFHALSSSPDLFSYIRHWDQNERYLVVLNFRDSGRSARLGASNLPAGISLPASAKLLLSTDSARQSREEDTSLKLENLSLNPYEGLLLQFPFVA

T1 sequence (A0A8I6AB70 1-502): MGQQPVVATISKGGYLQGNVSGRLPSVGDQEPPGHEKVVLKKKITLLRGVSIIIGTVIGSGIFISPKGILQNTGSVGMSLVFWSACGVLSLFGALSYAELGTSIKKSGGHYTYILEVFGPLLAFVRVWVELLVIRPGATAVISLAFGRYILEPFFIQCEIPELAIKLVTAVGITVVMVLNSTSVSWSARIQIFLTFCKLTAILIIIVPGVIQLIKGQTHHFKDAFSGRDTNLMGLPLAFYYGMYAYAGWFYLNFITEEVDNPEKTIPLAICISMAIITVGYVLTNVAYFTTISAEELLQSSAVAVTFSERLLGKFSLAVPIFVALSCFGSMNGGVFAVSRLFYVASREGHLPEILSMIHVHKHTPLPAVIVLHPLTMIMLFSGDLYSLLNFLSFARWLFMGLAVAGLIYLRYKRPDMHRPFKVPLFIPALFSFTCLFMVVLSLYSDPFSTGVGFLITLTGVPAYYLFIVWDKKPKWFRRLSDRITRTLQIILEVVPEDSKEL

IC50 [1] | SMILES | radiolabeled substrate uptake in Na+-free buffer, transfected versus non-transfe [2] | radiolabeled substrate uptake in Na+-free buffer, knockout control [3]
5.75 µM | N[C@@H](CCS(=O)(=O)O)C(=O)O [HCA] | – | –
– | N[C@@H](CCC(=O)O)C(=O)O [L-glutamate] | [^3H]-L-glutamate uptake measured in the transfected cells was significantly higher as compared to non-transfected cells | the uptake of [^3H]-L-glutamate was barely detectable in astrocytes derived from the transgenic mice lacking xCT
